Laboratory results from PubChem BioAssay AID2060489 (Molecular Pharmacology Branch, DTP, NCI, 2025).

Test system: 922993-354-T-J3-PDC complex spheroids, viability
Assay: Anticancer human tumor 922993-354-T-J3-PDC patient-derived endometrial carcinoma cell line growth inhibition [GQUAD]
Details: for IC50: curve of first compound; for viability, T/C: stronger effect = lower value
Procedure, shortened: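 Multi-cell-type spheroids of tumor cells with HUVEC and mesenchymal stem cells, treated with drug combinations. Concentrations descend in half-log steps from near clinical Cmax, or from 10 microM where Cmax is unknown; viability read-out.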

[1] = second compound 0.0316 µM, first compound 0.0316 µM
[2] = second compound 0.0316 µM, first compound 0.1 µM
[3] = second compound 0.0316 µM, first compound 0.316 µM
[4] = second compound 0.0316 µM, first compound 1 µM
[5] = second compound 0.0316 µM, first compound 3.16 µM
[6] = second compound 0.0316 µM, first compound 10 µM
[7] = second compound 0.1 µM, first compound 0.0316 µM
[8] = second compound 0.1 µM, first compound 0.1 µM
[9] = second compound 0.1 µM, first compound 0.316 µM
[10] = second compound 0.1 µM, first compound 1 µM
[11] = second compound 0.1 µM, first compound 3.16 µM
[12] = second compound 0.1 µM, first compound 10 µM
[13] = second compound 0.316 µM, first compound 0.0316 µM
[14] = second compound 0.316 µM, first compound 0.1 µM
[15] = second compound 0.316 µM, first compound 0.316 µM
[16] = second compound 0.316 µM, first compound 1 µM
[17] = second compound 0.316 µM, first compound 3.16 µM
[18] = second compound 0.316 µM, first compound 10 µM
[19] = second compound 1 µM, first compound 0.0316 µM
[20] = second compound 1 µM, first compound 0.1 µM
[21] = second compound 1 µM, first compound 0.316 µM
[22] = second compound 1 µM, first compound 1 µM
[23] = second compound 1 µM, first compound 3.16 µM
[24] = second compound 1 µM, first compound 10 µM
[25] = second compound 3.16 µM, first compound 0.0316 µM
[26] = second compound 3.16 µM, first compound 0.1 µM
[27] = second compound 3.16 µM, first compound 0.316 µM
[28] = second compound 3.16 µM, first compound 1 µM
[29] = second compound 3.16 µM, first compound 3.16 µM
[30] = second compound 3.16 µM, first compound 10 µM
[31] = second compound 10 µM, first compound 0.0316 µM
[32] = second compound 10 µM, first compound 0.1 µM
[33] = second compound 10 µM, first compound 0.316 µM
[34] = second compound 10 µM, first compound 1 µM
[35] = second compound 10 µM, first compound 3.16 µM
[36] = second compound 10 µM, first compound 10 µM
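Further: spheroids exposed to compounds for seven days.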
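Wherever viability, T/C is given: 100% = DMSO vehicle control viability.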

Structure (SMILES): C=CCn1c(=O)c2cnc(Nc3ccc(N4CCN(C)CC4)cc3)nc2n1-c1cccc(C(C)(C)O)n1 + Cc1cnc(CNC(=O)c2c(=O)c3ccc(N4CCCN(C)CC4)nc3n3c2sc2ccccc23)cn1
- IC50 (second compound 0.0316 µM): 2.61 µM
- IC50 (second compound 0.1 µM): 1.06 µM
- IC50 (second compound 0.316 µM): < 0.0316 µM
- IC50 (second compound 1 µM): < 0.0316 µM
- IC50 (second compound 3.16 µM): 0.828 µM
- IC50 (second compound 10 µM): < 0.0316 µM
- viability, T/C [1]: 92.1%
- viability, T/C [2]: 70.7%
- viability, T/C [3]: 81.6%
- viability, T/C [4]: 78.6%
- viability, T/C [5]: 44.3%
- viability, T/C [6]: 28.4%
- viability, T/C [7]: 69.1%
- viability, T/C [8]: 60%
- viability, T/C [9]: 55.6%
- viability, T/C [10]: 51.5%
- viability, T/C [11]: 23.1%
- viability, T/C [12]: 25%
- viability, T/C [13]: 50.9%
- viability, T/C [14]: 42%
- viability, T/C [15]: 32.1%
- viability, T/C [16]: 36.4%
- viability, T/C [17]: 41.3%
- viability, T/C [18]: 33.8%
- viability, T/C [19]: 42.8%
- viability, T/C [20]: 49.4%
- viability, T/C [21]: 39.2%
- viability, T/C [22]: 39.4%
- viability, T/C [23]: 47.5%
- viability, T/C [24]: 44.1%
- viability, T/C [25]: 56%
- viability, T/C [26]: 49.9%
- viability, T/C [27]: 49.5%
- viability, T/C [28]: 41.4%
- viability, T/C [29]: 50.5%
- viability, T/C [30]: 53.8%
- viability, T/C [31]: 47.7%
- viability, T/C [32]: 36%
- viability, T/C [33]: 45.7%
- viability, T/C [34]: 40.8%
- viability, T/C [35]: 40.9%
- viability, T/C [36]: 39.1%

Structure (SMILES): COc1cc(C2c3cc4c(cc3C(OC3OC5COC(C)OC5C(O)C3O)C3COC(=O)C23)OCO4)cc(OC)c1O (centres undefined) + Cc1[nH]c2ccc(F)cc2c1-c1nc2c3cccnc3c3ncccc3c2[nH]1
- IC50 (second compound 0.0316 µM): > 10 µM
- IC50 (second compound 0.1 µM): > 10 µM
- IC50 (second compound 0.316 µM): > 10 µM
- IC50 (second compound 1 µM): > 10 µM
- IC50 (second compound 3.16 µM): > 10 µM
- IC50 (second compound 10 µM): > 10 µM
- viability, T/C [1]: 95.3%
- viability, T/C [2]: 89.1%
- viability, T/C [3]: 83.8%
- viability, T/C [4]: 99.4%
- viability, T/C [5]: 76.6%
- viability, T/C [6]: 61.3%
- viability, T/C [7]: 113%
- viability, T/C [8]: 97.5%
- viability, T/C [9]: 92.2%
- viability, T/C [10]: 92.6%
- viability, T/C [11]: 76.2%
- viability, T/C [12]: 62.7%
- viability, T/C [13]: 110%
- viability, T/C [14]: 109%
- viability, T/C [15]: 84.1%
- viability, T/C [16]: 110%
- viability, T/C [17]: 56.4%
- viability, T/C [18]: 61.8%
- viability, T/C [19]: 138%
- viability, T/C [20]: 121%
- viability, T/C [21]: 96.6%
- viability, T/C [22]: 75.8%
- viability, T/C [23]: 72.4%
- viability, T/C [24]: 71.4%
- viability, T/C [25]: 125%
- viability, T/C [26]: 109%
- viability, T/C [27]: 76.2%
- viability, T/C [28]: 97.6%
- viability, T/C [29]: 72.3%
- viability, T/C [30]: 60.5%
- viability, T/C [31]: 111%
- viability, T/C [32]: 97.7%
- viability, T/C [33]: 79.1%
- viability, T/C [34]: 82.8%
- viability, T/C [35]: 74.2%
- viability, T/C [36]: 58.8%
